In data set [1] the test system is zebrafish embryos. Nature of the data set: 96-well plate embryo survival assay. Type of data set: in vivo. As to conditions: 1% DMSO in egg water, 5- to 8-day old embryos. As for the experimental part: Next it was determined if 5- to 8-day old zebrafish embryos are able to survive in 96 well plates, and what […] of water was necessary to attain high levels of survival. Six-day old zebrafish embryos were allocated to wells in a 96 well plate. Three to four embryos were grown in 250, 150, and 100 μl of egg water with and without 1% DMSO and analyzed daily for mortality.

In data set [2] the test system is MYC-ER. The settings on record: in the presence of tamoxifen; by 300 days of development; CD2-MYC-ER mouse models; cited from earlier work.

Structures are written as SMILES.

Consider `C[S+](C)[O-]` [DMSO], for which the “effect on embryo survival” value in data set [1] is “no significant effect”.

`CC/C(=C(\c1ccccc1)c1ccc(OCCN(C)C)cc1)c1ccccc1` [tamoxifen]: the offspring developing tumors in data set [2] is listed as 62%.

The values above are taken from patent publication US7525011B2, “Transgenic cancer models in fish” (Dana-Farber Cancer Institute, priority 2002, dated 2009).
